Reference: article PMC6704710, “Preclinical evaluation of 3D185, a novel potent inhibitor of FGFR1/2/3 and CSF-1R, in FGFR-dependent and macrophage-dominant cancer models” (Journal of Experimental & Clinical Cancer Research : CR, 2019)

How the values were obtained:
cKit(h) = target: T1, cKit(h) (Homo sapiens, UniProt P10721); assay: Eurofins kinase panel; type: biochemical; settings: read-out: Inhibition rate (%)
T1 construct: purchased Eurofins (KinaseProfiler)

NEK11(h) = target: T2, NEK11(h) (Homo sapiens, UniProt Q8NG66); assay: Eurofins kinase panel; type: biochemical; settings: read-out: Inhibition rate (%)
T2 construct: purchased Eurofins (KinaseProfiler)
T2 sequence (Q8NG66 1-645): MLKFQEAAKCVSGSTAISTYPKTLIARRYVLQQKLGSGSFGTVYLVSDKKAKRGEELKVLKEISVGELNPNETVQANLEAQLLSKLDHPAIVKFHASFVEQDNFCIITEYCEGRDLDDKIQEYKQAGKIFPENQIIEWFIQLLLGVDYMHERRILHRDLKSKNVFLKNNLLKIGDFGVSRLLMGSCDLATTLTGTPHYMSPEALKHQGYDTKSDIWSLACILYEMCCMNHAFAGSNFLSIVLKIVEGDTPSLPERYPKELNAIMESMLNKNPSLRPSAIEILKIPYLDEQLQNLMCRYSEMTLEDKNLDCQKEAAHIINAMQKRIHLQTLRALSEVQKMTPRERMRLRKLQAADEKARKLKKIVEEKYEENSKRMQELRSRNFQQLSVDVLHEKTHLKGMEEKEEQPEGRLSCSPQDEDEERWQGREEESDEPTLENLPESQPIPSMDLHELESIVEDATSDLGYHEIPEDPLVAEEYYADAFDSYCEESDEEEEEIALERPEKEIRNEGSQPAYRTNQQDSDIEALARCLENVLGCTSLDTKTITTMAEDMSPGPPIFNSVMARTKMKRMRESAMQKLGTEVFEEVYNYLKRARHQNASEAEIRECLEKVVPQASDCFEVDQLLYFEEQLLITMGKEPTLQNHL

PRAK(h) = target: T3, PRAK(h) (Homo sapiens, UniProt Q8IW41); assay: Eurofins kinase panel; type: biochemical; settings: read-out: Inhibition rate (%)
T3 construct: purchased Eurofins (KinaseProfiler)
T3 sequence (Q8IW41 1-473): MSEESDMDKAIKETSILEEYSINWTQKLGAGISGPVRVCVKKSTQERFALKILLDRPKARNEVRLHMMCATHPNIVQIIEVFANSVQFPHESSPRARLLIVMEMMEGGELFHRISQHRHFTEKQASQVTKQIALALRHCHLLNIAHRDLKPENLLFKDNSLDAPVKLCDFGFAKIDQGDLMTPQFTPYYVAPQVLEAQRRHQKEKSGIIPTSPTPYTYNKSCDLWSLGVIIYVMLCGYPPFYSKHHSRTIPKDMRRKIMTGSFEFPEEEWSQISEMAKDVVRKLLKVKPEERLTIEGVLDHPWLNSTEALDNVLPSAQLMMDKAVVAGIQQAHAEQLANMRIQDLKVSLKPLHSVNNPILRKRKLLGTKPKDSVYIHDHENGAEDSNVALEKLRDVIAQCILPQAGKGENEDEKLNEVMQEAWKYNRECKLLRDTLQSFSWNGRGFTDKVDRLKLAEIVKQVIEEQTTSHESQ

STK25(h) = target: T4, STK25(h) (Homo sapiens, UniProt O00506); assay: Eurofins kinase panel; type: biochemical; settings: read-out: Inhibition rate (%)
T4 construct: purchased Eurofins (KinaseProfiler)

ULK3(h) = target: T5, ULK3(h) (Homo sapiens, UniProt Q6PHR2); assay: Eurofins kinase panel; type: biochemical; settings: read-out: Inhibition rate (%)
T5 construct: purchased Eurofins (KinaseProfiler)
T5 sequence (Q6PHR2 1-472): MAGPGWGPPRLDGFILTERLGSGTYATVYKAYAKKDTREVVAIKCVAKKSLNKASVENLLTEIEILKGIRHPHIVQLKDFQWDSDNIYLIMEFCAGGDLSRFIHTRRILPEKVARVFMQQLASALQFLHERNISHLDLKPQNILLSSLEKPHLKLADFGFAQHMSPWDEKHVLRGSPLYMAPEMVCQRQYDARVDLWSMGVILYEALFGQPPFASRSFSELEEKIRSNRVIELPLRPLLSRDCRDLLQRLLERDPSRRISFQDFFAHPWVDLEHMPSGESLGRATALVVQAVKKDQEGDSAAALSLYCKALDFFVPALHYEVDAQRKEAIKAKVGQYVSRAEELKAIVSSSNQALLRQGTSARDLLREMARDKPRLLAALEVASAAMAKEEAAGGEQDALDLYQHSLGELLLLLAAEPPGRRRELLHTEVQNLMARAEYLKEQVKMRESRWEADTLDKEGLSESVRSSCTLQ

WNK2(h) = target: T6, WNK2(h) (Homo sapiens, UniProt Q9Y3S1); assay: Eurofins kinase panel; type: biochemical; settings: read-out: Inhibition rate (%)
T6 construct: purchased Eurofins (KinaseProfiler)

[1] = system: VEGF-induced primary HUVECs; assay: VEGF-induced HUVEC proliferation (CCK-8); type: cell-based; settings: Homo sapiens, VEGF 100 ng/mL, 48 h
Protocol: Fig. 1 3D185 is a dual FGFR1/2/3 and CSF-1R inhibitor with high selectivity. a Chemical structure of 3D185. […]. H, A broad kinase profile of 3D185 against 372 protein kinases. […]. Representative data from three independent experiments are shown
The cancer cell lines indicated in Figure 3 were seeded in 96-well plates at a low density in growth medium. The next day, appropriate controls or the designated concentrations of the compounds were added to each well, and the cells were incubated for 72 h. HUVECs (passage 3) were seeded in 96-well plates in growth medium overnight and transferred to serum-free medium for 24 h. The following day, appropriate controls or the designated concentrations of the compounds were added to each well, and 100 ng/mL growth factor (bFGF or VEGF) was added to the indicated wells. The cells were incubated for 48 h. Finally, cell proliferation was determined using a sulforhodamine B (SRB) assay or a cell counting kit-8 (CCK-8) assay. […] IC50 values for proliferation curves were calculated using a 4-parameter logistic nonlinear regression model with SoftMax Pro Software (Molecular Devices, San Jose, USA).

T4 sequence (O00506 whole entry): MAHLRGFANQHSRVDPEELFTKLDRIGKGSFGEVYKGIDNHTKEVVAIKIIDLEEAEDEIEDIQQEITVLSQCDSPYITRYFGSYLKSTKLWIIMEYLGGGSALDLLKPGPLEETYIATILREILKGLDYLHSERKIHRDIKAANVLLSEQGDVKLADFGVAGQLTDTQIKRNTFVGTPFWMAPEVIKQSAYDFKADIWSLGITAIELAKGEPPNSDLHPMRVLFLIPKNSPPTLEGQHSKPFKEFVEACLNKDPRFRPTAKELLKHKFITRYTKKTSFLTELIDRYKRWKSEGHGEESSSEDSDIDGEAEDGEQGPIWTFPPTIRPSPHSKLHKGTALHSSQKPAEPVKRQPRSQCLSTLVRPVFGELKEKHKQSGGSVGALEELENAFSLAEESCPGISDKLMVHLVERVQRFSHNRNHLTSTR
T6 sequence (Q9Y3S1 whole entry): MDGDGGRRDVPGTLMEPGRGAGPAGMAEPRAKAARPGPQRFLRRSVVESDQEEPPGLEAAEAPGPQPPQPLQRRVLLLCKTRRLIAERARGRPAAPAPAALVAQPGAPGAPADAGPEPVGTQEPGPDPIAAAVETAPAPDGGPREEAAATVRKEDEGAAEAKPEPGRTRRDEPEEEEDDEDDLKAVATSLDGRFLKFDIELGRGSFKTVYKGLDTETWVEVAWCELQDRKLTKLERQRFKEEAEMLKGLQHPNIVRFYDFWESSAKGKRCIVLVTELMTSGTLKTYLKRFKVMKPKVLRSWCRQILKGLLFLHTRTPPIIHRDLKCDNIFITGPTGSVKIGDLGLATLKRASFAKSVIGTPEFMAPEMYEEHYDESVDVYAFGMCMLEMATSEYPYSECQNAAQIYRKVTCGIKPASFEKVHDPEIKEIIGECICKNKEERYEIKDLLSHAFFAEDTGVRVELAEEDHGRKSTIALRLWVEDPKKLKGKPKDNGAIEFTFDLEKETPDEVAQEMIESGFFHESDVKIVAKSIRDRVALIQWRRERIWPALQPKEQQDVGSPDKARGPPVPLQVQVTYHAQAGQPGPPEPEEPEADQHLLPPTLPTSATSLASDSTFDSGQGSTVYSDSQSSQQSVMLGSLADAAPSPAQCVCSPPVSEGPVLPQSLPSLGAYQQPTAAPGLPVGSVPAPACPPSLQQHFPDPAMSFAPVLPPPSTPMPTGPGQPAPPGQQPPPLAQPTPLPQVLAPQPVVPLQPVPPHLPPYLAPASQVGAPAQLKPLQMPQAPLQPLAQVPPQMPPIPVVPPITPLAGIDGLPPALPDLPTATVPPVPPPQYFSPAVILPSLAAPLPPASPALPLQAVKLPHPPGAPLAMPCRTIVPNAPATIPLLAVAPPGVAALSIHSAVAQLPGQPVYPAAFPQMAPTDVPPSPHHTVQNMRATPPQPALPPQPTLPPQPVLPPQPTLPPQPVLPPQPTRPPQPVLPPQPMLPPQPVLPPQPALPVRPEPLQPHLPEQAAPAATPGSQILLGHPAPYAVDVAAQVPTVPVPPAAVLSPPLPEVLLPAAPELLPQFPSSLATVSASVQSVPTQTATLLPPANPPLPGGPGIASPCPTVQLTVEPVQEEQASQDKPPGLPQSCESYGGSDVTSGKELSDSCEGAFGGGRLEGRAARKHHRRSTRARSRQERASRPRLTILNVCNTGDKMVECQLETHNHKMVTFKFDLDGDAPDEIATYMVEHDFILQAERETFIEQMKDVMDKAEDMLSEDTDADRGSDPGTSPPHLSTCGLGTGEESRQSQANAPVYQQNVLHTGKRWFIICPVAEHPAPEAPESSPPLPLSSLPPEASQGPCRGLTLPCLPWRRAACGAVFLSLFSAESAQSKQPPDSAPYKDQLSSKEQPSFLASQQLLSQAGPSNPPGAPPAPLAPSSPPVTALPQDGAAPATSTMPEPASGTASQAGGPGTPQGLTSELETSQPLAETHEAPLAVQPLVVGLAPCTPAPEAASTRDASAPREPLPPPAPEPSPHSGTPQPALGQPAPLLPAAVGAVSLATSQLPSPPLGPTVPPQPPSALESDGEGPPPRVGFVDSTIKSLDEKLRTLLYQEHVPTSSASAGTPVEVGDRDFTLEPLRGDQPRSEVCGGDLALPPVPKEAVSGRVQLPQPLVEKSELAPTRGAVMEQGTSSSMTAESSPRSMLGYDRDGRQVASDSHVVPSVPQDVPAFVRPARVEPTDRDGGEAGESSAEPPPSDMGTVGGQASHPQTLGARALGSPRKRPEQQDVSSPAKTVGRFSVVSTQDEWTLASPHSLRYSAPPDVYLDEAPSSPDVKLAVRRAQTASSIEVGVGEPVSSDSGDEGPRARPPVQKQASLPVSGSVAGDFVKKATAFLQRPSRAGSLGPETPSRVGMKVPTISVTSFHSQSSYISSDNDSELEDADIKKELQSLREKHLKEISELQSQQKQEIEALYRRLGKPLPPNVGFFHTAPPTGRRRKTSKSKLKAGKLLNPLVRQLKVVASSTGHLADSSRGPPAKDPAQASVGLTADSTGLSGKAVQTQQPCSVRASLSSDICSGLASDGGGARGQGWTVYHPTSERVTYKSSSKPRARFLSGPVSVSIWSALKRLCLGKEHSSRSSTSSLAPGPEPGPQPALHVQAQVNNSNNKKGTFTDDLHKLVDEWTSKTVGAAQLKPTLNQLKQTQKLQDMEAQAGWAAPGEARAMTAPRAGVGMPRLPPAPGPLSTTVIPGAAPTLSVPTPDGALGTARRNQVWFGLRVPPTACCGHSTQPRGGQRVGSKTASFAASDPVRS
T1 sequence (P10721 26-976): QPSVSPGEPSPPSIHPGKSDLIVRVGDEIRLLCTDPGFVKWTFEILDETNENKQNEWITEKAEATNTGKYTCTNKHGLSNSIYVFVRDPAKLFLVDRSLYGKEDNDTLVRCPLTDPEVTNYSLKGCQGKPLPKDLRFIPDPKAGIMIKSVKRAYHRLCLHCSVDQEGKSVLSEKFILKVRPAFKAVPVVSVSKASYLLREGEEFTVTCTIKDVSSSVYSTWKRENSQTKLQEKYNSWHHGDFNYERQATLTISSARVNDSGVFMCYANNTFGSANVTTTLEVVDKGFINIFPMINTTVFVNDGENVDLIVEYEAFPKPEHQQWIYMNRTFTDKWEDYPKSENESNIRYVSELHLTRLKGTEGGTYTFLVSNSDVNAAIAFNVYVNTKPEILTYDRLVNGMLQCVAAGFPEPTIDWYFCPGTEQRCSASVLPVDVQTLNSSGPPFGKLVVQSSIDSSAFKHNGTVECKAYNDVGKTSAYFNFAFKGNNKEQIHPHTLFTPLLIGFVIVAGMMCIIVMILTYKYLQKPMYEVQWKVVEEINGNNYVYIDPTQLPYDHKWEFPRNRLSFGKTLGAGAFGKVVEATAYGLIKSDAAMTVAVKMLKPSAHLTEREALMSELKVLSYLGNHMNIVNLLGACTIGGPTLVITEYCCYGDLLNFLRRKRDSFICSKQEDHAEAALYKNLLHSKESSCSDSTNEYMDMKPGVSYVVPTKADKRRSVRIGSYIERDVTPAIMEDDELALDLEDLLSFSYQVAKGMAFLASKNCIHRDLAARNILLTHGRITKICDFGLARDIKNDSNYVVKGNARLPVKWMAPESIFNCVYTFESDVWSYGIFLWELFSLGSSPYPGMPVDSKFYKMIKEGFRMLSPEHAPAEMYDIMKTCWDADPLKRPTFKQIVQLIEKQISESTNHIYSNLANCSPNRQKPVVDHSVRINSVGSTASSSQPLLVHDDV

## COc1cc(OC)c(Cl)c(-c2ccc3c(NC(=O)c4ccc(N5CCNC(C)(C)C5)cc4)n[nH]c3n2)c1Cl [3D185]
cKit(h); 10 nM
  inhibition at 0.01 µM: 19%
cKit(h); 100 nM
  inhibition at 0.1 µM: 35%
cKit(h); 1000 nM
  inhibition at 1 µM: 76%
NEK11(h); 10 nM
  inhibition at 0.01 µM: 5%
NEK11(h); 100 nM
  inhibition at 0.1 µM: 15%
NEK11(h); 1000 nM
  inhibition at 1 µM: 37%
PRAK(h); 10 nM
  inhibition at 0.01 µM: -18%
PRAK(h); 100 nM
  inhibition at 0.1 µM: -24%
PRAK(h); 1000 nM
  inhibition at 1 µM: -10%
STK25(h); 10 nM
  inhibition at 0.01 µM: 7%
STK25(h); 100 nM
  inhibition at 0.1 µM: 22%
STK25(h); 1000 nM
  inhibition at 1 µM: 57%
ULK3(h); 10 nM
  inhibition at 0.01 µM: -8%
ULK3(h); 100 nM
  inhibition at 0.1 µM: 2%
ULK3(h); 1000 nM
  inhibition at 1 µM: -1%
WNK2(h); 10 nM
  inhibition at 0.01 µM: 0%
WNK2(h); 100 nM
  inhibition at 0.1 µM: -1%
WNK2(h); 1000 nM
  inhibition at 1 µM: 22%
[1]
  IC50: 88.1 nM
